Counter-ions that a name gives are not always drawn.
Target: T1, Angiotensin II-Rezeptor (Rattus norvegicus, UniProt P25095)
T1 construct: Das Gewebe (Rattenlunge) wird in Tris-Puffer; from tissue; host or cells: rat lung homogenate (membrane pellet, 20,000 x g)
T1 sequence (P25095 1-359): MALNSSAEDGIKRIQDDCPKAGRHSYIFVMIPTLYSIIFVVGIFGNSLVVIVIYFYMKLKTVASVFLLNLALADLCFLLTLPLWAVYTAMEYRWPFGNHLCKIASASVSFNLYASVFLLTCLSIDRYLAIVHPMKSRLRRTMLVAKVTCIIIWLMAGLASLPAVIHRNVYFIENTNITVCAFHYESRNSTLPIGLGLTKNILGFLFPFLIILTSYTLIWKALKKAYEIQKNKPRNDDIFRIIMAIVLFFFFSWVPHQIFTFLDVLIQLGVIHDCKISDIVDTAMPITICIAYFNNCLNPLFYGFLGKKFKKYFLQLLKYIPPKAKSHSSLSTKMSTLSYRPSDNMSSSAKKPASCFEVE
Assay: Angiotensin II receptor binding (displacement of [125I]-angiotensin II, rat lung homogenate)
Parameters: species or system Ratte
Conditions: Rattenlunge homogenate; 50 pM [125I]-Angiotensin II; 60 Min. bei 37°C; read-out: IC₅₀
Method: Methodenbeschreibung Angiotensin II-Rezeptorbindung
Das Gewebe (Rattenlunge) wird in Tris-Puffer (50 mMol Tris, 150 mMol NaCl, 5 mMol EDTA, pH 7.40) homogenisiert und zweimal je 20 Min. bei 20.000 x g zentrifugiert. Das endgültige Pellet wird in Inkubations-Puffer (50 mMol Tris, 5 mMol MgCl₂, 0,2 % BSA, pH 7,40) 1:75, bezogen auf das Feuchtgewicht des Gewebes, resuspendiert. Je 0,1 ml Homogenat wird für 60 Min. bei 37°C mit 50 pM [125^I]-Angiotensin II (NEN, Dreieich, FRG) und steigenden Konzentrationen der Testsubstanz in einem Gesamtvolumen von 0,25 ml inkubiert. Die Inkubation wird durch rasche Filtration durch Glasfiber-Filtermatten beendet. Die Filter werden je 4 ml eiskaltem Puffer (25 mMol Tris, 2.5 mMol MgCl₂, 0,1 % BSA, pH 7,40) gewaschen. Die gebundene Radioaktivität wird in einem Gamma-Counter ermittelt. Aus der Dosis-Wirkungskurve wird der entsprechende IC₅₀-Wert ermittelt.

Row | Structure (SMILES) | IC50 [nM]
1 | CCCCc1nc2c(C)ccc(OCCCn3cnc4ccccc43)c2n1Cc1ccc(-c2ccccc2C(=O)O)cc1 [Substanz B, 4'-[[2-n-Butyl-7-[3-(benzimidazol-1-yl)-propyloxy]-4-methyl-benzimidazol-1-yl]-methyl]-biphenyl-2-carbonsäure-trifluoracetat] | 52
2 | CCCc1nc2c(C)cc(-c3nc4ccccc4n3C)cc2n1Cc1ccc(-c2ccccc2-c2nnn[nH]2)cc1 [Substanz E, 4'-([2-n-Propyl-4-methyl-6-(1-methylbenzimidazol-2-yl)-benzimidazol-1-yl]-methyl]-2-(1H-tetrazol-5-yl)-biphenyl] | 14
3 | CCCc1nc2c(C)cc(-c3nc4cc(F)ccc4n3C)cc2n1Cc1ccc(-c2ccccc2C(=O)O)cc1 [Substanz N, 4'-[(2-n-Propyl-4-methyl-6-(1-methyl-5-fluor-benzimidazol-2-yl)-benzimidazol-1-yl)-methyl]-biphenyl-2-carbonsäure] | 26
4 | CCCCc1nc2c(C)ccc(OCCCCn3cnc4c3CCCC4)c2n1Cc1ccc(-c2ccccc2C(=O)O)cc1 [Substanz C, 4'-[[2-n-Butyl-4-methyl-7-[4-(tetrahydrobenzimidazol-1-yl)-butyloxy]-benzimidazol-1-yl]-methyl]-biphenyl-2-carbonsäure] | 130
5 | CCCCc1nc2c(C)ccc(OCCCn3ccnc3)c2n1Cc1ccc(-c2ccccc2C(=O)O)cc1 [Substanz A, 4'-[[2-n-Butyl-7-[3-(imidazol-1-yl)-propyloxy]-4-methyl-benzimidazol-1-yl]-methyl]-biphenyl-2-carbonsäure] | 510
6 | CCCCc1nc2c(C)ccc(OCCCn3ccnc3)c2n1Cc1ccc(-c2ccccc2-c2nnn[nH]2)cc1 [Substanz L, 4'-[[2-n-Butyl-7-[3-(imidazol-1-yl)-propyloxy]-4-methyl-benzimidazol-1-yl]-methyl]-2-(1H-tetrazol-5-yl)-biphenyl] | 240
7 | CCCCc1nc2c(C)cc(NC(=O)NC3CCCCC3)cc2n1Cc1ccc(-c2ccccc2C(=O)O)cc1 [Substanz K, 4'-[[2-n-Butyl-6-(cyclohexylaminocarbonylamino)-4-methyl-benzimidazol-1-yl]-methyl]-biphenyl-2-carbonsäure-semi-trifluoracetat] | 17
8 | CCCCc1nc2c(C)cc(N3C(=O)C(C)=C(C)C3=O)cc2n1Cc1ccc(-c2ccccc2C(=O)O)cc1 [Substanz H, 4'-[[2-n-Butyl-6-(2,3-dimethylmaleinsäureimino)-4-methyl-benzimidazol-1-yl]-methyl]-biphenyl-2-carbonsäure-semihydrat] | 20
9 | CCCc1nc2c(Cl)cc(-c3nc4ccccc4n3C)cc2n1Cc1ccc(-c2ccccc2-c2nn[nH]n2)cc1 [Substanz R, 4'-[(2-n-Propyl-4-chlor-6-(1-methylbenzimidazol-2-yl)-benzimidazol-1-yl)-methyl]-2-(1H-tetrahol-5-yl)-biphenyl-hydrochlorid] | 20

Compounds with a lower IC50, results first:

Row | IC50 [nM] | Structure (SMILES)
10 | 12 | Cc1cc(-c2nc3ccccc3n2C)cc2c1nc(C1CC1)n2Cc1ccc(-c2ccccc2C(=O)O)cc1 [Substanz M, 4'-[(2-Cyclopropyl-4-methyl-6-(1-methylbenzimidazol-2-yl)-benzimidazol-1-yl)-methyl]-biphenyl-2-carbonsäure]
11 | 3.4 | CCCc1nc2c(C)cc(-c3cn4cccnc4n3)cc2n1Cc1ccc(-c2ccccc2-c2nnn[nH]2)cc1 [Substanz O, 4'-[(2-n-Propyl-4-methyl-6-(imidazo[1,2-a]pyrimidin-2-yl)-benzimidazol-1-yl)-methyl]-2-(1H-tetrazol-5-yl)-biphenyl]
12 | 1.2 | CCCc1nc2c(C)cc(N3CCCCS3(=O)=O)cc2n1Cc1ccc(-c2ccccc2-c2nn[nH]n2)cc1 [Substanz G, 4'-[[2-n-Propyl-4-methyl-6-(butansultam-1-yl)-benzimidazol-1-yl]-methyl]-2-(1H-tetrazol-5-yl)-biphenyl]
13 | 1.7 | CCCc1nc2c(C)cc(-c3cn4c(n3)CCCC4)cc2n1Cc1ccc(-c2ccccc2-c2nnn[nH]2)cc1 [Substanz Q, 4'-[(2-n-Propyl-4-methyl-6-(5,6,7,8-tetrahydro-imidazo-[1,2-a]pyridin-2-yl)-benzimidazol-1-yl)-methyl]-2-(1H-tetrazol-5-yl)-biphenyl]
14 | 3.5 | CCCCc1nc2c(C)cc(NC(=O)N3CCOCC3)cc2n1Cc1ccc(-c2ccccc2C(=O)O)cc1 [Substanz J, 4'-[[2-n-Butyl-4-methyl-6-(morpholinocarbonylamino)-benzimidazol-1-yl]-methyl]-biphenyl-2-carbonsäure]
15 | 6.6 | CCCCc1nc2c(C)cc(NC(=O)C(C)C)cc2n1Cc1ccc(-c2ccccc2C(=O)O)cc1 [Substanz I, 4'-[[2-n-Butyl-6-(isopropylcarbonylamino)-4-methyl-benzimidazol-1-yl]-methyl]-biphenyl-2-carbonsäure]
16 | 5 | CCCc1nc2c(C)cc(N3Cc4ccccc4C3=O)cc2n1Cc1ccc(-c2ccccc2-c2nnn[nH]2)cc1 [Substanz F, 4'-[[2-n-Propyl-4-methyl-6-(1-oxo-isoindolin-2-yl)-benzimidazol-1-yl]-methyl]-2-(1H-tetrazol-5-yl)-biphenyl]
17 | 7.8 | CCCc1nc2c(C)cc(-c3cn4ccsc4n3)cc2n1Cc1ccc(-c2ccccc2C(=O)O)cc1 [Substanz S, 4'-[[2-n-Propyl-4-methyl-6-(imidazo[2,1-b]thiazol-6-yl)-benzimidazol-1-yl]-methyl]-biphenyl-2-carbonsäure]
18 | 3.7 | CCCc1nc2c(C)cc(-c3nc4ccccc4n3C)cc2n1Cc1ccc(-c2ccccc2C(=O)O)cc1 [Substanz D, 4'-[[2-n-Propyl-4-methyl-6-(1-methylbenzimidazol-2-yl)-benzimidazol-1-yl]-methyl]-biphenyl-2-carbonsäure]
19 | 1.2 | CCCc1nc2c(C)cc(-c3cn4c(n3)CCCC4)cc2n1Cc1ccc(-c2ccccc2C(=O)O)cc1 [Substanz P, 4'-[(2-n-Propyl-4-methyl-6-(5,6,7,8-tetrahydro-imidazo-[1,2-a]pyridin-2-yl)-benzimidazol-1-yl)-methyl]-biphenyl-2-carbonsäure]

Source: patent EP0502314A1, “Benzimidazol, medicaments containing them and process for their preparation” (Dr. Karl Thomae GmbH, priority 1991, dated 1992)
